Values quoted from earlier work as cited in patent EP2654723B1, “Solid pharmaceutical dosage forms comprising tadalafil and methods of preparation thereof” (Zaklady Farmaceutyczne Polpharma SA, priority 2010, dated 2012).

Columns and labels:
[1] = at 37°C

experimental water solubility [1]: about 2 µg/mL
permeability: low permeability
BCS class (because of low solubility and low permeability): BCS class IV
Compound: CN1CC(=O)N2[C@H](c3ccc4c(c3)OCO4)c3[nH]c4ccccc4c3C[C@@H]2C1=O [Tadalafil, (6R-trans)-6-(1,3-benzodioxol-5-yl)-2,3,6,7,12,12a-hexahydro-2-methyl-pyrazino [1', 2':1,6] pyrido[3,4-b]indole-1,4-dione]
